Measurements reported in US8664226B2, “Compound having 3-heteroarylpyrimidin-4-(3H)-one structure and pharmaceutical preparation containing same” (Kowa Company, Ltd., priority 2009, dated 2014).
Like-named read-outs stand apart in the source and are kept apart here.

How the values were obtained:
human PPARγ2 = biological target: T1, human PPARγ2 (Homo sapiens, UniProt P37231); test: PPARγ activation activity, Gal4 chimera luciferase transfection assay using COS7 cells; assay type: cell-based; details: for EC50: Gal4-human PPARγ2 LBD chimera, luciferase reporter, 16 hours; for Emax: COS-7, 16 h, maximum activity strength relative to the maximum activity of rosiglitazone, read-out: % MAX vs Rosiglitazone; for maximum activity compared with telmisartan: maximum PPARγ activity, telmisartan 30 to 50% of rosiglitazone under the same condition
T1 construct: the amino acids 182 to 505 of human PPARγ2; expressed in transfected cells; host or cells: COS7 cells
T1 sequence (P37231 182-505): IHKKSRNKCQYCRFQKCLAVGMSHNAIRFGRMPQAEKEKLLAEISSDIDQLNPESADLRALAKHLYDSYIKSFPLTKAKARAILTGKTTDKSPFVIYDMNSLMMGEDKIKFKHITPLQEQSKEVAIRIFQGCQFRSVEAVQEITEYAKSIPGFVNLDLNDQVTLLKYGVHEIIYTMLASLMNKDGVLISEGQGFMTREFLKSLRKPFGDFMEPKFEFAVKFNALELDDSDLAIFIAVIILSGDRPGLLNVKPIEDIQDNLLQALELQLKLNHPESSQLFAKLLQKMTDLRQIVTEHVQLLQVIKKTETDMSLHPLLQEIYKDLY
T1 sequence (P04386 1-147 partner limits assumed): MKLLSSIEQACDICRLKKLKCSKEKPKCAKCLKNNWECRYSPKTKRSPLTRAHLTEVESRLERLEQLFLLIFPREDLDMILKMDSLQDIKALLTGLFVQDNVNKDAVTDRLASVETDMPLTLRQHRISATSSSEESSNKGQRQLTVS
Experimental: The agonistic activity of the compounds of the invention on PPARγ was measured based on the transfection assay using COS7 cells (DS Pharma Biomedical Co., Ltd., Osaka, Japan), which are the cell line derived from the kidney of the African green monkey. COS7 cells were cultured under 5% CO2 concentration, and DMEM medium containing 10% fetal bovine serum, glutamic acid, and antibiotics was used as a medium.
As an expression vector, a chimera in which DNA binding domain of Gal4, which is a yeast transcription factor, and ligand binding domain of human PPAR^γ2 are fused, i.e., a fused product between the amino acids 1 to 147 of Gal4 transcription factor and the amino acids 182 to 505 of human PPARγ2, was used. Furthermore, as a reporter vector, a firefly luciferase containing five copies of Gal4 recognition sequence in the promoter region was used. Plasmid transfection to the cells was performed according to a method which uses jetPEI (trade name, manufactured by Funakoshi Co., Ltd., Tokyo, Japan). Furthermore, β-galactosidase expression vector was employed as an internal standard.
After the transfection of the cells, the medium was replaced with a DMEM medium (containing 1% serum) added with the compound, and the cells were further cultured for 16 hours. After that, the luciferase activity and β-galactosidase activity in the cell lysis solution were measured.
For the present test, dimethyl sulfoxide (DMSO) was used for dissolution and dilution of the test compounds, and during the cell treatment, the DMSO concentration in DMEM medium (containing 1% serum) was adjusted to 0.1%. As a positive compound, rosiglitazone (trade name, manufactured by ALEXIS Corporation, Switzerland) was used. […] The 50% effective concentration of the test compound (EC50, 50% effect concentration) was calculated by using SAS Preclinical Package Ver5.0 (trade name, manufactured by SAS institute Japan Co., Tokyo, Japan), which is a statistical analysis program.

[1] = biological target: T2, angiotensin II type 1 receptor (Oryctolagus cuniculus, UniProt P34976); test: Angiotensin II antagonistic activity in isolated rabbit blood vessels; details: angiotensin II (10 nM)-induced contraction of rabbit thoracic aorta ring
T2 construct: By using a specimen of isolated rabbit blood vessels; from tissue; host or cells: rabbit thoracic aorta ring (New Zealand White, male)
T2 sequence (P34976 1-359): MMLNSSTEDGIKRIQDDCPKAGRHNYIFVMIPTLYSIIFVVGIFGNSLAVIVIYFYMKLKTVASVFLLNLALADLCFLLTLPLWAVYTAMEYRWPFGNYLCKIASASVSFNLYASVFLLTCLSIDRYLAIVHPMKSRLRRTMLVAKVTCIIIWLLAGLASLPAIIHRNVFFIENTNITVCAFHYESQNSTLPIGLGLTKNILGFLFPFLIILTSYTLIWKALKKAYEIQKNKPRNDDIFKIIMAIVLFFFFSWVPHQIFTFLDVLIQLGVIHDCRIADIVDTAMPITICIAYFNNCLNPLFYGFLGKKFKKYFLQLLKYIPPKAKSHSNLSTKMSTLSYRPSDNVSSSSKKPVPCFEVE
Experimental: By using a specimen of isolated rabbit blood vessels, antagonistic activity of the compounds of the invention against angiotensin II type 1 receptor was estimated from a dose-response curve of angiotensin II-induced blood vessel contraction.
During the measurement, the inside temperature of the magnus bath was maintained at 37° C. and the bath was continuously ventilated with a sufficient amount of mixed gas (95% O2 and 5% CO2). The angiotensin II-induced contraction was converted into a relative value (%) that is based on the angiotensin II (10 nM)-induced contraction in the absence of the compounds of each example. From the concentration-response curve obtained therefrom, 50% inhibition concentration (IC50 value) was calculated by using SAS Preclinical Package Ver5.0 (trade name, manufactured by SAS institute Japan Co., Tokyo, Japan), which is a statistical analysis program.

Row | SMILES | EC50 (human PPARγ2; COS7 cells, read-out: EC50) | IC50 [1] | further results
1 | CCCCc1nc(C)n(-c2ncc(OCCc3ccc(CC)cn3)cn2)c(=O)c1Cc1ccc(-c2ccccc2-c2nnn[nH]2)cc1 [Example 36, 5-{[2′-(1H-tetrazol-5-yl)biphenyl-4-yl]methyl}-6-butyl-3-{5-[2-(5-ethylpyridin-2-yl)ethoxy]pyrimidin-2-yl}-2-methylpyrimidin-4 (3H)-one] | 3770 nM | 627 nM | 
2 | CCCCc1nc(C)n(-c2nccs2)c(=O)c1Cc1ccc(-c2ccccc2-c2nnn[nH]2)cc1 [Example 62, 5-{[2′-(1H-tetrazol-5-yl)biphenyl-4-yl]methyl}-6-butyl-2-methyl-3-(thiazol-2-yl)pyrimidin-4 (3H)-one] | 3390 nM | 435 nM | 
3 | CCCCc1nc(C)n(-c2cc3ccccc3cn2)c(=O)c1Cc1ccc(-c2ccccc2-c2nnn[nH]2)cc1 [Example 68, 5-{[2′-(1H-tetrazol-5-yl)biphenyl-4-yl]methyl}-6-butyl-3-(isoquinolin-3-yl)-2-methylpyrimidin-4 (3H)-one] | 2610 nM | 223 nM | 
4 | CCCCc1nc(C)n(-c2ccnn2C)c(=O)c1Cc1ccc(-c2ccccc2-c2nnn[nH]2)cc1 [Example 64, 5-{[2′-(1H-tetrazol-5-yl)biphenyl-4-yl]methyl}-6-butyl-2-methyl-3-(1-methyl-1H-pyrazol-5-yl)pyrimidin-4 (3H)-one] | 3300 nM | 652 nM | 
5 | CCCCc1nc(C)n(-c2ccc(OC)cn2)c(=O)c1Cc1ccc(-c2ccccc2-c2nnn[nH]2)cc1 [Example 3, 5-{[2′-(1H-tetrazol-5-yl)biphenyl-4-yl]methyl}-6-butyl-3-(5-methoxypyridin-2-yl)-2-methylpyrimidin-4(3H)-one] | 3740 nM | 18 nM | 
6 | CCCCOc1cnc(-n2c(C)nc(CCCC)c(Cc3ccc(-c4ccccc4-c4nnn[nH]4)cc3)c2=O)nc1 [Example 24, 5-{[2′-(1H-tetrazol-5-yl)biphenyl-4-yl]methyl}-3-(5-butoxypyrimidin-2-yl)-6-butyl-2-methylpyrimidin-4 (3H)-one] | 860 nM | 141 nM | 
7 | CCCCc1nc(C)n(-c2ncc(OCCCC(=O)N(CC)CC)cn2)c(=O)c1Cc1ccc(-c2ccccc2-c2nnn[nH]2)cc1 [Example 52, 4-{2-{5-{[2′-(1H-tetrazol-5-yl)biphenyl-4-yl]methyl}-4-butyl-2-methyl-6-oxopyrimidin-1(6H)-yl}pyrimidin-5-yloxy}-N,N-diethylbutanamide] | 140 nM | 8.3 nM | 
8 | CCCCc1nc(C)n(-c2ncc(OCc3ccccc3)cn2)c(=O)c1Cc1ccc(-c2ccccc2-c2nnn[nH]2)cc1 [Example 19, 5-{[2′-(1H-tetrazol-5-yl)biphenyl-4-yl]methyl}-3-[5-(benzyloxy)pyrimidin-2-yl]-6-butyl-2-methylpyrimidin-4 (3H)-one] | 2550 nM | 396 nM | 
9 | CCCCc1nc(C)n(-c2ccc(Cl)cn2)c(=O)c1Cc1ccc(-c2ccccc2-c2nnn[nH]2)cc1 [Example 7, 5-{[2′-(1H-tetrazol-5-yl)biphenyl-4-yl]methyl}-6-butyl-3-(5-chloropyridin-2-yl)-2-methylpyrimidin-4(3H)-one] | 1520 nM | 431 nM | Emax (human PPARγ2; COS7 cells): 54.6%; maximum activity compared with telmisartan (human PPARγ2): the same or greater than that of telmisartan
10 | CCCCc1nc(C)n(-c2nc3ccccc3s2)c(=O)c1Cc1ccc(-c2ccccc2-c2nnn[nH]2)cc1 [Example 70, 5-{[2′-(1H-tetrazol-5-yl)biphenyl-4-yl]methyl}-3-(benzothiazol-2-v1)-6-butyl-2-methylpyrimidin-4 (3H)-one] | 690 nM |  | Emax (human PPARγ2; COS7 cells): 39.7%; maximum activity compared with telmisartan (human PPARγ2): the same or greater than that of telmisartan
11 | CCCc1nc2c(C)cc(-c3nc4ccccc4n3C)cc2n1Cc1ccc(-c2ccccc2C(=O)O)cc1 [telmisartan, reference compound] |  |  | Emax (human PPARγ2; COS7 cells): 30 to 50%; EC50 (human PPARγ2; EC50, COS7 cells): 1000 to 5000 nM
12 | CCCCc1nc(C)n(-c2ncc(OCc3nc(-c4ccco4)oc3C)cn2)c(=O)c1Cc1ccc(-c2ccccc2-c2nnn[nH]2)cc1 [Example 33, 5-{[2′-(1H-tetrazol-5-yl)biphenyl-4-yl]methyl}-6-butyl-3-{5-{[2-(furan-2-yl)-5-methyloxazol-4-yl]methoxy}pyrimidin-2-yl}-2-methylpyrimidin-4 (3H)-one] |  | 956 nM | 
13 | CCCCc1nc(C)n(-c2ncc(OC3CCC(=O)CC3)cn2)c(=O)c1Cc1ccc(-c2ccccc2-c2nnn[nH]2)cc1 [Example 29, 5-{[2′-(1H-tetrazol-5-yl)biphenyl-4-yl]methyl}-6-butyl-2-methyl-3-[5-(4-oxocyclohexyloxy)pyrimidin-2-yl]pyrimidin-4 (3H)-one] |  | 7.7 nM | 
14 | CCCCc1nc(C)n(-c2ncc(OCCCNS(C)(=O)=O)cn2)c(=O)c1Cc1ccc(-c2ccccc2-c2nnn[nH]2)cc1 [Example 57, N-{3-{2-{5-{[2′-(1H-tetrazol-5-yl)biphenyl-4-yl]methyl}-4-butyl-2-methyl-6-oxopyrimidin-1(6H)-yl}pyrimidin-5-yloxy}propyl}methane sulfonamide] |  | 3.6 nM | 
15 | CCCCc1nc(C)n(-c2ncc(OCC(N)=O)cn2)c(=O)c1Cc1ccc(-c2ccccc2-c2nnn[nH]2)cc1 [Example 39, 2-{2-{5-{[2′-(1H-tetrazol-5-yl)biphenyl-4-yl]methyl}-4-butyl-2-methyl-6-oxopyrimidin-1(6H)-yl}pyrimidin-5-yloxy}acetamide] |  | 1 nM | 
16 | CCCCc1nc(C)n(-c2cnccn2)c(=O)c1Cc1ccc(-c2ccccc2-c2nnn[nH]2)cc1 [Example 60, 5-{[2′-(1H-tetrazol-5-yl)biphenyl-4-yl]methyl}-6-butyl-2-methyl-3-(pyrazin-2-yl)pyrimidin-4 (3H)-one] |  | 8.1 nM | 
17 | CCCCc1nc(C)n(-c2ncc(OCc3nc(-c4ccccc4)oc3C)cn2)c(=O)c1Cc1ccc(-c2ccccc2-c2nnn[nH]2)cc1 [Example 31] |  | 338 nM | 
18 | CCCCc1nc(C)n(-c2ncc(OCCCC(=O)NCCC)cn2)c(=O)c1Cc1ccc(-c2ccccc2-c2nnn[nH]2)cc1 [Example 50, 4-{2-{5-{[2′-(1H-tetrazol-5-yl)biphenyl-4-yl]methyl}-4-butyl-2-methyl-6-oxopyrimidin-1(6H)-yl}pyrimidin-5-yloxy}-N-propylbutanamide] |  | 14 nM | 
19 | CCCCc1nc(C)n(-c2ncc(O)cn2)c(=O)c1Cc1ccc(-c2ccccc2-c2nnn[nH]2)cc1 [Example 20, 5-{[2′-(1H-tetrazol-5-yl)biphenyl-4-yl]methyl}-6-butyl-3-(5-hydroxypyrimidin-2-yl)-2-methylpyrimidin-4 (3H)-one] |  | 6.3 nM | 
20 | CCCCc1nc(C)n(-c2ncc(OC(C(N)=O)c3ccccc3)cn2)c(=O)c1Cc1ccc(-c2ccccc2-c2nnn[nH]2)cc1 (centres unmarked) [Example 44, 2-{2-{5-{[2′-(1H-tetrazol-5-yl)biphenyl-4-yl]methyl}-4-butyl-2-methyl-6-oxopyrimidin-1(6H)-yl}pyrimidin-5-yloxy}-2-phenylacetamide] |  | 963 nM | 
21 | CCCCc1nc(C)n(-c2nnc(C)c(C)n2)c(=O)c1Cc1ccc(-c2ccccc2-c2nnn[nH]2)cc1 [Example 61, 5-{[2′-(1H-tetrazol-5-yl)biphenyl-4-yl]methyl}-6-butyl-3-(5,6-dimethyl-1,2,4-triazin-3-yl)-2-methylpyrimidin-4 (3H)-one] |  | 25 nM | 
